# Values quoted from earlier work as cited in patent publication US10156556B2, “Method for determining ecological risks of polycyclic aromatic hydrocarbon in water body” (priority 2013, dated 2018).
# Settings: relative to benzoapyrene; Nisbet and Lagoy 1992; cited from earlier work
compound,measurement,value
c1ccc2c(c1)-c1cccc3cccc-2c13 [Flu],Toxic equivalency factor,0.001
